Test results taken from US20260022143A1, “Cyclic Peptide Inhibitors of IL-23” (JANSSEN PHARMACEUTICA NV, priority 2022, published 2026).
Positions of bridges follow the written chain, without caps; N, C: chain ends. Non-standard residues stand in square brackets, D forms with d. Residues, ends and D or L forms follow the SMILES beside them. *: point of attachment. Me3N+(CH2)2O(CH2)2O(CH2)2CO = C[N+](C)(C)CCOCCOCCC(=O)*; CH2CH2OCH2CH2OCH2CH2NMe3+ = C[N+](C)(C)CCOCCOCC*; Trp(7-Me) = Cc1cccc2c(C[C@H](N)C(=O)O)c[nH]c12; X28 = CCCCCCCCCCCCCCCC[N+](C)(C)CCc1cn(CC*)nn1; X30 = C[N+](C)(C)CCOCCOCCOCCOCc1cn(CC*)nn1; X73 = C[N+](C)(C)CCOCCOCCNC(=O)CCCCCCCC*; X9 = COCCOCCOCC[N+](C)(C)CCc1cn(CC*)nn1; X89 = COCCOCCOCC[N+](C)(CCOCCOCCOC)CC*; 2Nal = N[C@@H](Cc1ccc2ccccc2c1)C(=O)O; X75 = C[N+](C)(C)CCOCC[N+](C)(C)CC*; X77 = COCCN1CC[N+]2(CC1)CCN(CC*)CC2; X45 = COCC[N+](C)(C)CCc1cn(CC*)nn1; 3Pal = N[C@@H](Cc1cccnc1)C(=O)O; Lys(Me) = CNCCCC[C@H](N)C(=O)O; X69 = CN(CCOCC[N+](C)(C)C)CC*; X90 = COCCOCCOCC[N+](C)(C)CC*; Pen = CC(C)(S)[C@H](N)C(=O)O; Thp = NC1(C(=O)O)CCOCC1; Sar = CNCC(=O)O

assay: Exposed Polar Surface Area (EPSA); type: physicochemical; conditions: SFC on Chirex 3014 column; sample 1 mM DMSO stock; read-out: EPSA
Procedure, shortened: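 SFC retention on a Chirex 3014 (S-valine/(R)-1-(α-naphthyl)ethylamine) column at 35 °C, 4 mL/min, 14 MPa outlet, 5–60% methanol/20 mM ammonium formate gradient in CO2. Retention times converted to EPSA (Å²) via linear calibration with 8 standards; samples from 1 mM DMSO stock, run in duplicate.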

Row | EPSA [A^2] | SMILES
1 | 140 | CC(=O)N(C)CCCC[C@@H]1NC(=O)[C@H](Cc2c[nH]c3c(C)cccc23)NC(=O)[C@H]([C@@H](C)O)NC(=O)[C@H](CC(=O)N(C)C)NC(=O)[C@@H](NC(=O)CCOCCOCC[N+](C)(C)C)C(C)(C)SSC(C)(C)[C@@H](C(=O)N[C@@H](Cc2ccc(OCCN(C)CCOCC[N+](C)(C)C)cc2)C(=O)N[C@@H](Cc2ccc3ccccc3c2)C(=O)NC2(C(=O)N[C@@H](CCCCN(C)C(C)=O)C(=O)N[C@@H](CC(N)=O)C(=O)N[C@@H](Cc3cccnc3)C(=O)N(C)CC(=O)N(C)C)CCOCC2)NC1=O [compound 237, cPEG3aCO-Pen(3)-N(N(Me)2)-T-7MeW-K(NMeAc)-Pen(3)-AEF(NMePEG2a)-2Nal-THP-K(NMeAc)-N-3Pya-Sar-CON(Me)2] ({Me3N+(CH2)2O(CH2)2O(CH2)2CO}-[Pen]D(NMe2)T[Trp(7-Me)][Lys(Me)](Ac)[Pen]Y(X69)[2Nal][Thp][Lys(Me)](Ac)N[3Pal][Sar]-NMe2; disulfide 1-6)
2 | 138 | COCCOCCOCC[N+](C)(C)CCOc1ccc(C[C@H](NC(=O)[C@H]2NC(=O)[C@H](CCCCN(C)C(C)=O)NC(=O)[C@H](Cc3c[nH]c4c(C)cccc34)NC(=O)[C@H]([C@@H](C)O)NC(=O)[C@H](CC(=O)N(C)C)NC(=O)[C@@H](NC(=O)CCOCCOCC[N+](C)(C)C)C(C)(C)SSC2(C)C)C(=O)N[C@@H](Cc2ccc3ccccc3c2)C(=O)NC2(C(=O)N[C@@H](CCCCN(C)C(C)=O)C(=O)N[C@@H](CC(N)=O)C(=O)N[C@@H](Cc3cccnc3)C(=O)N(C)CC(=O)N(C)C)CCOCC2)cc1 [compound 239, cPEG3aCO-Pen(3)-N(N(Me)2)-T-7MeW-K(NMeAc)-pen(3)-AEF(NMe2mPEG3)-2Nal-THP-K(NMeAc)-N-3Pya-Sar-CON(Me)2] ({Me3N+(CH2)2O(CH2)2O(CH2)2CO}-[Pen]D(NMe2)T[Trp(7-Me)][Lys(Me)](Ac)[Pen]Y(X90)[2Nal][Thp][Lys(Me)](Ac)N[3Pal][Sar]-NMe2; disulfide 1-6)
3 | 135 | COCCOCCOCC[N+](C)(CCOCCOCCOC)CCOc1ccc(C[C@H](NC(=O)[C@H]2NC(=O)[C@H](CCCCN(C)C(C)=O)NC(=O)[C@H](Cc3c[nH]c4c(C)cccc34)NC(=O)[C@H]([C@@H](C)O)NC(=O)[C@H](CC(=O)N(C)C)NC(=O)[C@@H](NC(=O)CCOCCOCC[N+](C)(C)C)C(C)(C)SSC2(C)C)C(=O)N[C@@H](Cc2ccc3ccccc3c2)C(=O)NC2(C(=O)N[C@@H](CCCCN(C)C(C)=O)C(=O)N[C@@H](CC(N)=O)C(=O)N[C@@H](Cc3cccnc3)C(=O)N(C)CC(=O)N(C)C)CCOCC2)cc1 [compound 241, cPEG3aCO-Pen(3)-N(N(Me)2)-T-7MeW-K(NMeAc)-Pen(3)-AEF(NMeBismPEG3)-2Nal-THP-K(NMeAc)-N-3Pya-Sar-CON(Me)2] ({Me3N+(CH2)2O(CH2)2O(CH2)2CO}-[Pen]D(NMe2)T[Trp(7-Me)][Lys(Me)](Ac)[Pen]Y(X89)[2Nal][Thp][Lys(Me)](Ac)N[3Pal][Sar]-NMe2; disulfide 1-6)
4 | 142 | CC(=O)NCCCC[C@@H]1NC(=O)[C@H](Cc2c[nH]c3c(C)cccc23)NC(=O)[C@H]([C@@H](C)O)NC(=O)[C@H](CC(=O)N(C)C)NC(=O)[C@@H](NC(=O)CCOCCOCC[N+](C)(C)C)C(C)(C)SSC(C)(C)[C@@H](C(=O)N[C@@H](Cc2ccc(OCCOCCOCC[N+](C)(C)C)cc2)C(=O)N[C@@H](Cc2ccc3ccccc3c2)C(=O)NC2(C(=O)N[C@@H](CCCCN(C)C(C)=O)C(=O)N[C@@H](CC(N)=O)C(=O)N[C@@H](Cc3cccnc3)C(=O)N(C)CC(=O)N(C)C)CCOCC2)NC1=O [compound 243, cPEG3aCO-Pen(3)-N(N(Me)2)-T-7MeW-K(Ac)-Pen(3)-APEG3F-2Nal-THP-K(NMeAc)-N-3Pya-Sar-CON(Me)2] ({Me3N+(CH2)2O(CH2)2O(CH2)2CO}-[Pen]D(NMe2)T[Trp(7-Me)]K(Ac)[Pen]Y(CH2CH2OCH2CH2OCH2CH2NMe3+)[2Nal][Thp][Lys(Me)](Ac)N[3Pal][Sar]-NMe2; disulfide 1-6)
5 | 144 | CC(=O)N(C)CCCC[C@@H]1NC(=O)[C@H](Cc2c[nH]c3c(C)cccc23)NC(=O)[C@H]([C@@H](C)O)NC(=O)[C@H](CC(=O)N(C)C)NC(=O)[C@@H](NC(=O)CCOCCOCC[N+](C)(C)C)C(C)(C)SSC(C)(C)[C@@H](C(=O)N[C@@H](Cc2ccc(OCCCCCCCCC(=O)NCCOCCOCC[N+](C)(C)C)cc2)C(=O)N[C@@H](Cc2ccc3ccccc3c2)C(=O)NC2(C(=O)N[C@@H](CCCCN(C)C(C)=O)C(=O)N[C@@H](CC(N)=O)C(=O)N[C@@H](Cc3cccnc3)C(=O)N(C)CC(=O)N(C)C)CCOCC2)NC1=O [compound 254, cPEG3aCO-Pen(3)-N(N(Me)2)-T-7MeW-K(NMeAc)-Pen(3)-YC8CO(NHPEG3a)-2Nal-THP-K(NMeAc)-N-3Pya-Sar-CON(Me)2] ({Me3N+(CH2)2O(CH2)2O(CH2)2CO}-[Pen]D(NMe2)T[Trp(7-Me)][Lys(Me)](Ac)[Pen]Y(X73)[2Nal][Thp][Lys(Me)](Ac)N[3Pal][Sar]-NMe2; disulfide 1-6)
6 | 151 | CC(=O)N(C)CCCC[C@@H]1NC(=O)[C@H](Cc2c[nH]c3c(C)cccc23)NC(=O)[C@H]([C@@H](C)O)NC(=O)[C@H](CC(=O)N(C)C)NC(=O)[C@@H](NC(=O)CCOCCOCC[N+](C)(C)C)C(C)(C)SSC(C)(C)[C@@H](C(=O)N[C@@H](Cc2ccc(OCC[N+](C)(C)CCOCC[N+](C)(C)C)cc2)C(=O)N[C@@H](Cc2ccc3ccccc3c2)C(=O)NC2(C(=O)N[C@@H](CCCCN(C)C(C)=O)C(=O)N[C@@H](CC(N)=O)C(=O)N[C@@H](Cc3cccnc3)C(=O)N(C)CC(=O)N(C)C)CCOCC2)NC1=O [compound 264, cPEG3aCO-Pen(3)-N(N(Me)2)-T-7MeW-K(NMeAc)-Pen(3)-AEF(aPEG2a)-2Nal-THP-K(NMeAc)-N-3Pya-Sar-CON(Me)2] ({Me3N+(CH2)2O(CH2)2O(CH2)2CO}-[Pen]D(NMe2)T[Trp(7-Me)][Lys(Me)](Ac)[Pen]Y(X75)[2Nal][Thp][Lys(Me)](Ac)N[3Pal][Sar]-NMe2; disulfide 1-6)

Second part, the compound before the results:

Row | SMILES | EPSA [A^2]
7 | COCC[N+](C)(C)CCc1cn(CCOc2ccc(C[C@H](NC(=O)[C@H]3NC(=O)[C@H](CCCCNC(C)=O)NC(=O)[C@H](Cc4c[nH]c5c(C)cccc45)NC(=O)[C@H]([C@@H](C)O)NC(=O)[C@H](CC(N)=O)NC(=O)[C@@H](NC(C)=O)C(C)(C)SSC3(C)C)C(=O)N[C@@H](Cc3ccc4ccccc4c3)C(=O)NC3(C(=O)N[C@@H](CCCCNC(C)=O)C(=O)N[C@@H](CC(N)=O)C(=O)N[C@@H](Cc4cccnc4)C(=O)N(C)CC(N)=O)CCOCC3)cc2)nn1 [compound 249] (Ac-[Pen]NT[Trp(7-Me)]K(Ac)[Pen]Y(X45)[2Nal][Thp]K(Ac)N[3Pal][Sar]-NH2; disulfide 1-6 (inferred)) | 147
8 | CC(=O)NCCCC[C@@H]1NC(=O)[C@H](Cc2c[nH]c3c(C)cccc23)NC(=O)[C@H]([C@@H](C)O)NC(=O)[C@H](CC(N)=O)NC(=O)[C@@H](NC(C)=O)C(C)(C)SSC(C)(C)[C@@H](C(=O)N[C@@H](Cc2ccc(OCCn3cc(COCCOCCOCCOCC[N+](C)(C)C)nn3)cc2)C(=O)N[C@@H](Cc2ccc3ccccc3c2)C(=O)NC2(C(=O)N[C@@H](CCCCNC(C)=O)C(=O)N[C@@H](CC(N)=O)C(=O)N[C@@H](Cc3cccnc3)C(=O)N(C)CC(N)=O)CCOCC2)NC1=O [compound 252] (Ac-[Pen]NT[Trp(7-Me)]K(Ac)[Pen]Y(X30)[2Nal][Thp]K(Ac)N[3Pal][Sar]-NH2; disulfide 1-6) | 148
9 | CCCCCCCCCCCCCCCC[N+](C)(C)CCc1cn(CCOc2ccc(C[C@H](NC(=O)[C@H]3NC(=O)[C@H](CCCCNC(C)=O)NC(=O)[C@H](Cc4c[nH]c5c(C)cccc45)NC(=O)[C@H]([C@@H](C)O)NC(=O)[C@H](CC(N)=O)NC(=O)[C@@H](NC(C)=O)C(C)(C)SSC3(C)C)C(=O)N[C@@H](Cc3ccc4ccccc4c3)C(=O)NC3(C(=O)N[C@@H](CCCCNC(C)=O)C(=O)N[C@@H](CC(N)=O)C(=O)N[C@@H](Cc4cccnc4)C(=O)N(C)CC(N)=O)CCOCC3)cc2)nn1 [compound 259] (Ac-[Pen]NT[Trp(7-Me)]K(Ac)[Pen]Y(X28)[2Nal][Thp]K(Ac)N[3Pal][Sar]-NH2; disulfide 1-6) | 149
10 | COCCOCCOCC[N+](C)(C)CCc1cn(CCOc2ccc(C[C@H](NC(=O)[C@H]3NC(=O)[C@H](CCCCNC(C)=O)NC(=O)[C@H](Cc4c[nH]c5c(C)cccc45)NC(=O)[C@H]([C@@H](C)O)NC(=O)[C@H](CC(N)=O)NC(=O)[C@@H](NC(C)=O)C(C)(C)SSC3(C)C)C(=O)N[C@@H](Cc3ccc4ccccc4c3)C(=O)NC3(C(=O)N[C@@H](CCCCNC(C)=O)C(=O)N[C@@H](CC(N)=O)C(=O)N[C@@H](Cc4cccnc4)C(=O)N(C)CC(N)=O)CCOCC3)cc2)nn1 [compound 260] (Ac-[Pen]NT[Trp(7-Me)]K(Ac)[Pen]Y(X9)[2Nal][Thp]K(Ac)N[3Pal][Sar]-NH2; disulfide 1-6) | 147
11 | COCCN1CC[N+]2(CC1)CCN(CCOc1ccc(C[C@H](NC(=O)[C@H]3NC(=O)[C@H](CCCCN(C)C(C)=O)NC(=O)[C@H](Cc4c[nH]c5c(C)cccc45)NC(=O)[C@H]([C@@H](C)O)NC(=O)[C@H](CC(=O)N(C)C)NC(=O)[C@@H](NC(=O)CCOCCOCC[N+](C)(C)C)C(C)(C)SSC3(C)C)C(=O)N[C@@H](Cc3ccc4ccccc4c3)C(=O)NC3(C(=O)N[C@@H](CCCCN(C)C(C)=O)C(=O)N[C@@H](CC(N)=O)C(=O)N[C@@H](Cc4cccnc4)C(=O)N(C)CC(=O)N(C)C)CCOCC3)cc1)CC2 [compound 262, cPEG3aCO-Pen(3)-N(N(Me)2)-T-7MeW-K(NMeAc)-Pen(3)-MTASF-2Nal-THP-K(NMeAc)-N-3Pya-Sar-CON(Me)2] ({Me3N+(CH2)2O(CH2)2O(CH2)2CO}-[Pen]D(NMe2)T[Trp(7-Me)][Lys(Me)](Ac)[Pen]Y(X77)[2Nal][Thp][Lys(Me)](Ac)N[3Pal][Sar]-NMe2; disulfide 1-6) | 145
